Results published in patent US10004701B2, “Methods and compositions for treating infection” (UNIVERSITY OF ROCHESTER, priority 2012, dated 2018).
Structures can show the parent of a compound that is named as a salt. Where two headings read alike, the source gives them in different places.

Key:
Test in all cases: AK assay 384-well format, Prestwick library screening
E. cloacae = type: cell-based, Enterobacter cloacae; settings: Enterobacter cloacae, 3 h, 50 μM final drug concentration
E. coli = type: cell-based, Escherichia coli; settings: Escherichia coli, 3 h, 50 μM final drug concentration
E. faecium = type: cell-based, Enterococcus faecium; settings: Enterococcus faecium, 3 h, 50 μM final drug concentration
[1] = test system: S. aureus strain USA300-0114; type: cell-based, Staphylococcus aureus; settings: Staphylococcus aureus, USA300, 3 h, 50 μM final drug concentration
K. pneumoniae = type: cell-based, Klebsiella pneumoniae; settings: Klebsiella pneumoniae, 3 h, 50 μM final drug concentration
[2] = test system: A. baumannii strain 98-37-09; type: cell-based, Acinetobacter baumannii; settings: Acinetobacter baumannii, 983709, 3 h, 50 μM final drug concentration
P. aeruginosa = type: cell-based, Pseudomonas aeruginosa; settings: Pseudomonas aeruginosa, 3 h, 50 μM final drug concentration
[3] = planktonic, […], read-out: AK-based Prestwick Library Screening Results, E. cloacae (fold increase in extracellular AK activity)
[4] = planktonic, […], read-out: AK-based Prestwick Library Screening Results, E. coli (fold increase in extracellular AK activity)
[5] = planktonic, […], read-out: AK-based Prestwick Library Screening Results, E. faecium (fold increase in extracellular AK activity)
[6] = planktonic, […], read-out: AK-based Prestwick Library Screening Results, S. aureus (fold increase in extracellular AK activity)
[7] = planktonic, […], read-out: AK-based Prestwick Library Screening Results, K. pneumoniae (fold increase in extracellular AK activity)
[8] = planktonic, […], read-out: AK-based Prestwick Library Screening Results, A. baumannii (fold increase in extracellular AK activity)
[9] = planktonic, […], read-out: AK-based Prestwick Library Screening Results, P. aeruginosa (fold increase in extracellular AK activity)
[10] = planktonic E. cloacae, positive cutoff 3-fold increase, read-out: AK-based Prestwick library screening result, E. cloacae (fold increase in extracellular AK activity)
[11] = planktonic E. coli, positive cutoff 3-fold increase, read-out: AK-based Prestwick library screening result, E. coli (fold increase in extracellular AK activity)
[12] = planktonic E. faecium, positive cutoff 3-fold increase, read-out: AK-based Prestwick library screening result, E. faecium (fold increase in extracellular AK activity)
[13] = planktonic S. aureus, positive cutoff 3-fold increase, read-out: AK-based Prestwick library screening result, S. aureus (fold increase in extracellular AK activity)
[14] = planktonic K. pneumoniae, positive cutoff 3-fold increase, read-out: AK-based Prestwick library screening result, K. pneumoniae (fold increase in extracellular AK activity)
[15] = planktonic A. baumannii, positive cutoff 3-fold increase, read-out: AK-based Prestwick library screening result, A. baumannii (fold increase in extracellular AK activity)
[16] = planktonic P. aeruginosa, positive cutoff 3-fold increase, read-out: AK-based Prestwick library screening result, P. aeruginosa (fold increase in extracellular AK activity)
[17] = planktonic, cutoff for positive 3-fold increase, read-out: AK-based Prestwick Library Screening Results, E. cloacae (fold increase in extracellular AK activity)
[18] = planktonic, cutoff for positive 3-fold increase, read-out: AK-based Prestwick Library Screening Results, E. coli (fold increase in extracellular AK activity)
[19] = planktonic, cutoff for positive 3-fold increase, read-out: AK-based Prestwick Library Screening Results, E. faecium (fold increase in extracellular AK activity)
[20] = planktonic, cutoff for positive 3-fold increase, read-out: AK-based Prestwick Library Screening Results, S. aureus (fold increase in extracellular AK activity)
[21] = planktonic, cutoff for positive 3-fold increase, read-out: AK-based Prestwick Library Screening Results, K. pneumoniae (fold increase in extracellular AK activity)
[22] = planktonic, cutoff for positive 3-fold increase, read-out: AK-based Prestwick Library Screening Results, A. baumannii (fold increase in extracellular AK activity)
[23] = planktonic, cutoff for positive 3-fold increase, read-out: AK-based Prestwick Library Screening Results, P. aeruginosa (fold increase in extracellular AK activity)
[24] = planktonic, cutoff for positive-scoring molecules 3-fold increase, read-out: AK-based Prestwick Library Screening Results, E. cloacae (fold increase in extracellular AK activity)
[25] = planktonic, cutoff for positive-scoring molecules 3-fold increase, read-out: AK-based Prestwick Library Screening Results, E. coli (fold increase in extracellular AK activity)
[26] = planktonic, cutoff for positive-scoring molecules 3-fold increase, read-out: AK-based Prestwick Library Screening Results, E. faecium (fold increase in extracellular AK activity)
[27] = planktonic, cutoff for positive-scoring molecules 3-fold increase, read-out: AK-based Prestwick Library Screening Results, S. aureus (fold increase in extracellular AK activity)
[28] = planktonic, cutoff for positive-scoring molecules 3-fold increase, read-out: AK-based Prestwick Library Screening Results, K. pneumoniae (fold increase in extracellular AK activity)
[29] = planktonic, cutoff for positive-scoring molecules 3-fold increase, read-out: AK-based Prestwick Library Screening Results, A. baumannii (fold increase in extracellular AK activity)
[30] = planktonic, cutoff for positive-scoring molecules 3-fold increase, read-out: AK-based Prestwick Library Screening Results, P. aeruginosa (fold increase in extracellular AK activity)
[31] = 384-well format, cutoff for positive-scoring molecules 3-fold increase, read-out: AK-based Prestwick Library Screening Results, E. cloacae (increase in extracellular AK activity)
[32] = 384-well format, cutoff for positive-scoring molecules 3-fold increase, read-out: AK-based Prestwick Library Screening Results, E. coli (increase in extracellular AK activity)
[33] = 384-well format, cutoff for positive-scoring molecules 3-fold increase, read-out: AK-based Prestwick Library Screening Results, E. faecium (increase in extracellular AK activity)
[34] = 384-well format, cutoff for positive-scoring molecules 3-fold increase, read-out: AK-based Prestwick Library Screening Results, S. aureus (increase in extracellular AK activity)
[35] = 384-well format, cutoff for positive-scoring molecules 3-fold increase, read-out: AK-based Prestwick Library Screening Results, K. pneumoniae (increase in extracellular AK activity)
[36] = 384-well format, cutoff for positive-scoring molecules 3-fold increase, read-out: AK-based Prestwick Library Screening Results, A. baumannii (increase in extracellular AK activity)
[37] = 384-well format, cutoff for positive-scoring molecules 3-fold increase, read-out: AK-based Prestwick Library Screening Results, P. aeruginosa (increase in extracellular AK activity)

Compound `CCCCOC(=O)c1ccc(O)cc1` [Butylparaben] has a fold induction at 50 µM (E. cloacae; [3]) of 1, a fold induction at 50 µM (E. coli; [4]) of 0.5 and a fold induction at 50 µM (E. faecium; [5]) of 0.5. It also gave a fold induction at 50 µM [1, 6] of 0.7, a fold induction at 50 µM (K. pneumoniae; [7]) of 0.4 and a fold induction at 50 µM [2, 8] of 0.6. It also gave a fold induction at 50 µM (P. aeruginosa; [9]) of 0.6.
Work on `OCCN1CCN(CC/C=C2/c3ccccc3Sc3ccc(Cl)cc32)CC1` [Zuclopenthixol hydrochloride] yielded a fold induction at 50 µM (E. cloacae; [10]) of 1.3, a fold induction at 50 µM (E. coli; [11]) of 1.2 and a fold induction at 50 µM (E. faecium; [12]) of 1. The fold induction at 50 µM [1, 13] was 0.7, the fold induction at 50 µM (K. pneumoniae; [14]) was 1 and the fold induction at 50 µM [2, 15] was 1.9. It also gave a fold induction at 50 µM (P. aeruginosa; [16]) of 0.9.
With `NC(=O)CN1CCCC1=O` [Piracetam] the fold induction at 50 µM (E. cloacae; [17]) was 1.4, the fold induction at 50 µM (E. coli; [18]) was 1.1 and the fold induction at 50 µM (E. faecium; [19]) was 0.9. For the same compound, the fold induction at 50 µM [1, 20] was 1, the fold induction at 50 µM (K. pneumoniae; [21]) was 1 and the fold induction at 50 µM [2, 22] was 0.9. The fold induction at 50 µM (P. aeruginosa; [23]) was 1.1.
`Cc1cccc(C)c1NC(=O)C(C)N` (stereo not drawn) [Tocainide hydrochloride] was tested, and the fold induction at 50 µM (E. cloacae; [10]) was 1.4, the fold induction at 50 µM (E. coli; [11]) was 1.2 and the fold induction at 50 µM (E. faecium; [12]) was 1. The fold induction at 50 µM [1, 13] was 1.1, the fold induction at 50 µM (K. pneumoniae; [14]) was 1.1 and the fold induction at 50 µM [2, 15] was 1.6. It also gave a fold induction at 50 µM (P. aeruginosa; [16]) of 1.1.
`CCOC(=O)[N-]c1cn(N2CCOCC2)n[o+]1` [Molsidomine] gave a fold induction at 50 µM (E. cloacae; [17]) of 1.5, a fold induction at 50 µM (E. coli; [18]) of 1.4 and a fold induction at 50 µM (E. faecium; [19]) of 0.9. For the same compound, the fold induction at 50 µM [1, 20] was 0.9, the fold induction at 50 µM (K. pneumoniae; [21]) was 1 and the fold induction at 50 µM [2, 22] was 1.2. It also gave a fold induction at 50 µM (P. aeruginosa; [23]) of 1.1.
Compound `Cc1nnc(SCC2=C(C(=O)O)N3C(=O)[C@@H](NC(=O)Cn4cnnn4)[C@H]3SC2)s1` [Cefazolin sodium salt] has a fold induction at 50 µM (E. cloacae; [24]) of 0.9, a fold induction at 50 µM (E. coli; [25]) of 16.5 and a fold induction at 50 µM (E. faecium; [26]) of 0.9. For the same compound, the fold induction at 50 µM [1, 27] was 3.1, the fold induction at 50 µM (K. pneumoniae; [28]) was 3.6 and the fold induction at 50 µM [2, 29] was 0.5. It also gave a fold induction at 50 µM (P. aeruginosa; [30]) of 0.7.
In the case of `C=C(NC(=O)C(=C)NC(=O)c1csc(C2=N[C@@H]3c4csc(n4)[C@H]4NC(=O)c5csc(n5)[C@H]([C@](C)(O)[C@@H](C)O)NC(=O)[C@H]5CSC(=N5)/C(=C/C)NC(=O)[C@H]([C@@H](C)O)NC(=O)c5csc(n5)[C@]3(CC2)NC(=O)[C@H](C)NC(=O)C(=C)NC(=O)[C@H](C)NC(=O)[C@H]([C@@H](C)CC)N[C@@H]2C=Cc3c([C@H](C)O)cc(nc3[C@H]2O)C(=O)O[C@@H]4C)n1)C(N)=O` [Thiostrepton], the fold induction at 50 µM (E. cloacae; [3]) is reported as 1.4, the fold induction at 50 µM (E. coli; [4]) is reported as 1.3 and the fold induction at 50 µM (E. faecium; [5]) is reported as 1. It also gave a fold induction at 50 µM [1, 6] of 0.4, a fold induction at 50 µM (K. pneumoniae; [7]) of 1 and a fold induction at 50 µM [2, 8] of 1.1. It also gave a fold induction at 50 µM (P. aeruginosa; [9]) of 0.9.
Work on `Nc1nc(N)c2nc(-c3ccccc3)c(N)nc2n1` [Triamterene] yielded a fold induction at 50 µM (E. cloacae; [31]) of 1.2, a fold induction at 50 µM (E. coli; [32]) of 0.6 and a fold induction at 50 µM (E. faecium; [33]) of 0.7. It also gave a fold induction at 50 µM [1, 34] of 0.6, a fold induction at 50 µM (K. pneumoniae; [35]) of 0.5 and a fold induction at 50 µM [2, 36] of 1.1. The fold induction at 50 µM (P. aeruginosa; [37]) was 0.6.
`COc1nc(C)nc(Cl)c1N=C1NCCN1` [Moxonidine] was tested, and the fold induction at 50 µM (E. cloacae; [10]) was 1.8, the fold induction at 50 µM (E. coli; [11]) was 1.1 and the fold induction at 50 µM (E. faecium; [12]) was 0.9. For the same compound, the fold induction at 50 µM [1, 13] was 1, the fold induction at 50 µM (K. pneumoniae; [14]) was 1.1 and the fold induction at 50 µM [2, 15] was 1.1. For the same compound, the fold induction at 50 µM (P. aeruginosa; [16]) was 1.1.
With `CCS(=O)(=O)CCn1c([N+](=O)[O-])cnc1C` [Tinidazole] the fold induction at 50 µM (E. cloacae; [24]) was 1.5, the fold induction at 50 µM (E. coli; [25]) was 1.2 and the fold induction at 50 µM (E. faecium; [26]) was 0.9. For the same compound, the fold induction at 50 µM [1, 27] was 1.2, the fold induction at 50 µM (K. pneumoniae; [28]) was 0.8 and the fold induction at 50 µM [2, 29] was 1. For the same compound, the fold induction at 50 µM (P. aeruginosa; [30]) was 1.1.
`CCCCNc1ccc(C(=O)OCCOCCOCCOCCOCCOCCOCCOCCOCCOC)cc1` [Benzonatate] showed a fold induction at 50 µM (E. cloacae; [31]) of 0.7, a fold induction at 50 µM (E. coli; [32]) of 0.7 and a fold induction at 50 µM (E. faecium; [33]) of 0.8. It also gave a fold induction at 50 µM [1, 34] of 0.7, a fold induction at 50 µM (K. pneumoniae; [35]) of 0.6 and a fold induction at 50 µM [2, 36] of 0.7. The fold induction at 50 µM (P. aeruginosa; [37]) was 0.6.
Work on `Cc1nccn1CC1CCc2c(c3ccccc3n2C)C1=O` (stereo not drawn) [Ondansetron Hydrochloride] yielded a fold induction at 50 µM (E. cloacae; [10]) of 0.8, a fold induction at 50 µM (E. coli; [11]) of 0.7 and a fold induction at 50 µM (E. faecium; [12]) of 1.1. The fold induction at 50 µM [1, 13] was 0.6, the fold induction at 50 µM (K. pneumoniae; [14]) was 0.6 and the fold induction at 50 µM [2, 15] was 0.7. It also gave a fold induction at 50 µM (P. aeruginosa; [16]) of 0.7.
